Measured values published in article PMC8531085, “Proton Pump Inhibitors Inhibit PHOSPHO1 Activity and Matrix Mineralisation In Vitro” (Calcified Tissue International, 2021).
Values joined by “and” are separate entries in the source; they are usually repeats but may differ in a detail not shown here. Equal entries are not always repeated. “Also recorded” adds a separate entry of the source.

Key:
[1] = target: T1, Recombinant human PHOSPHO1 (Homo sapiens, UniProt Q8TCT1); assay: PHOSPHO1 phosphatase assay (BIOMOL Green, β-glycerol phosphate); format: biochemical; conditions: for Inhibition of PHOSPHO1 activity (in words): all concentrations tested (0-100 µM); for IC50: recombinant human PHOSPHO1 50 ng, 0-100 µM, 2.5 mM β-glycerol phosphate, read-out: IC50, inhibition of PHOSPHO1 activity
T1 construct: made in house
T1 sequence (Q8TCT1 1-267): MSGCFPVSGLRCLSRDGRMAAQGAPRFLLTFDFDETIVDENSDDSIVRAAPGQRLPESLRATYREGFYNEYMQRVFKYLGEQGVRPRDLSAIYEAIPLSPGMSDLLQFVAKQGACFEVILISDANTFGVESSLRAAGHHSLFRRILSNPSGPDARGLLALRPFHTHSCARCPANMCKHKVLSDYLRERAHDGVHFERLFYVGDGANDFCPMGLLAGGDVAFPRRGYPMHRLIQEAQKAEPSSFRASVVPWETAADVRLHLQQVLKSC
Experimental: Recombinant human PHOSPHO1 (50 ng) was generated as previously described and incubated with varying concentrations of the aforementioned PPIs and […] in experimental assay buffer (20 mM Tris, 2 mM MgCl2 & 25 μg/ml BSA) at 37 °C for 15 min. Using the BIOMOL® Green assay (Enzo, Exeter, UK), standards (0-2 nM) and samples were then incubated with 2.5 mM β-glycerol phosphate for 30 min at 37 °C with gentle agitation. The reaction was stopped using 100 μl BIOMOL® Green and after being left for 30 min at room temperature, the absorbance was read using spectrophotometry at 630 nm. […] Using the BIOMOL® Green assay, standards (0-2 nM) and samples were then incubated with 0.5 mM p-nitrophenyl phosphate (pNPP) for 30 min at 37 °C with gentle agitation. The reaction was stopped using 100 μl BIOMOL® Green and after being left for 30 min at room temperature, the absorbance was read using spectrophotometry at 630 nm.

recombinant human TNAP = target: T2, recombinant human TNAP (Homo sapiens, UniProt P05186); assay: TNAP phosphatase assay (BIOMOL Green, pNPP); format: biochemical; conditions: all concentrations tested (0-100 µM)
T2 construct: purchased R&D Systems
T2 sequence (P05186 18-524): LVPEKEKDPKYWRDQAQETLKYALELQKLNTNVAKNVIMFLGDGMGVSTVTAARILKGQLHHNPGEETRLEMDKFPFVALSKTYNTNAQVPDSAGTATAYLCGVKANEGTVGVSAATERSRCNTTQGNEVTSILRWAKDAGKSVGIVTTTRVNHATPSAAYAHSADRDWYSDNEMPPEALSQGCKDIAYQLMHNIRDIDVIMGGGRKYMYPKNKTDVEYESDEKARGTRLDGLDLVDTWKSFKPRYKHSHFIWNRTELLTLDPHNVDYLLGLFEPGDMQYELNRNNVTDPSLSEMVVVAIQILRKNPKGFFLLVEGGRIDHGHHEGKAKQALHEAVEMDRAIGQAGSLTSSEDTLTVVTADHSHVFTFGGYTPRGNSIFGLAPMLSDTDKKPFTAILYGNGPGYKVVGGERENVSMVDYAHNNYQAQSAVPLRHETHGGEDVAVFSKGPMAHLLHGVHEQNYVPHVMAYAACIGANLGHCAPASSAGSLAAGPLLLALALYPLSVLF
Experimental: Recombinant human PHOSPHO1 (50 ng) was generated as previously described and incubated with varying concentrations of the aforementioned PPIs and H2RAs in experimental assay buffer (20 mM Tris, 2 mM MgCl2 & 25 µg/ml BSA) at 37 °C for 15 min. Using the BIOMOL® Green assay (Enzo, Exeter, UK), standards (0-2 nM) and samples were then incubated with 2.5 mM β-glycerol phosphate for 30 min at 37 °C with gentle agitation. The reaction was stopped using 100 µl BIOMOL® Green and after being left for 30 min at room temperature, the absorbance was read using spectrophotometry at 630 nm. For TNAP, 2 ng recombinant human TNAP (R&D Systems, Abington, UK), was incubated with varying concentrations of the aforementioned PPIs and H2RAs in experimental assay buffer (1 M diethylamine hydrochloride, 1 mM MgCl2 and 20 µM ZnCl2). Using the BIOMOL® Green assay, standards (0-2 nM) and samples were then incubated with 0.5 mM p-nitrophenyl phosphate (pNPP) for 30 min at 37 °C with gentle agitation. The reaction was stopped using 100 µl BIOMOL® Green and after being left for 30 min at room temperature, the absorbance was read using spectrophotometry at 630 nm.

[2] = tested on: Primary calvarial osteoblasts; assay: Primary osteoblast matrix mineralisation (Alizarin red, 28 days); format: cell-based, mice
Experimental: Primary calvarial osteoblasts were obtained from 4-day-old wild-type C57Bl/6 mice. Primary osteoblasts were isolated by sequential enzyme digestion of excised calvarial bones using a four-step process as has previously been described [1 mg/ml collagenase type II in Hanks’ balanced salt solution (HBSS) for 10 min; 1 mg/ml collagenase type II in HBSS for 30 min; 4 mM EDTA for 10 min; 1 mg/ml collagenase type II in HBSS for 30 min]. The first digest was discarded and the cells were re-suspended in growth medium consisting of a-MEM (Invitrogen, Paisley, UK) supplemented with 10% (v/v) FBS and 1% gentamycin (Invitrogen). Osteoblasts were seeded at a density of 1 × 10^4 cells/cm^2 and grown to confluency at which point 2 mM β-glycerophosphate and 50 µg/ml ascorbic acid was added along with a PPI (0–50 µM) as described in the results. Media was changed every 2–3 days for the duration of the 28-day experiments. After 28 days, primary cell cultures were fixed in 4% paraformaldehyde for 5 min at room temperature. Cell monolayers were stained with aqueous 2% (w/v) Alizarin red solution for 5 min at room temperature. The bound stain was solubilised in 10% cetylpyridinium chloride and the optical density of the resultant eluted solution measured by spectrophotometry at 570 nm.

osteoblasts = tested on: osteoblasts; design: method as in PMID 23937530; conditions: cited from earlier work
[3] = target: T1, Recombinant human PHOSPHO1; design: method as in PMID 17227223; conditions: non-competitive; cited from earlier work
osteoblast MV = conditions: cited from earlier work
[4] = tested on: tissue non-specific alkaline phosphatase (TNAP); design: method as in PMID 17227223; conditions: cited from earlier work
developing chick embryos = tested on: developing chick embryos; design: method as in PMID 20053388; conditions: administration to developing chick embryos; cited from earlier work
rodents = tested on: rodents; design: method as in PMID 11589371, PMID 26229922; conditions: rodents administered the drug; cited from earlier work
healthy subjects = conditions: short-term treatment; cited from earlier work

For `CNC(=C[N+](=O)[O-])NCCSCc1csc(CN(C)C)n1` [nizatidine], which “Inhibition of PHOSPHO1 activity (in words)” value [1] is on record?
The value was “no inhibitory effects; also recorded: no inhibition”.

For `COc1ccc2nc([S@@+]([O-])Cc3ncc(C)c(OC)c3C)[nH]c2c1` [esomeprazole], which IC50 [1] is on record?
Its IC50 is 0.73 µM and 0.726 µM.

And the “Inhibition of TNAP activity (in words)” value (recombinant human TNAP)?
The value was “did not inhibit”.

What about the “Matrix mineralisation (Alizarin red)” value ([2]; 10 µM) of the same compound?
Its value is “significantly inhibited matrix mineralisation”.

And the “Ability of osteoblasts to mineralise their matrix” value (osteoblasts)?
Its value is “decreased the ability of osteoblasts to mineralise their matrix”.

Which IC50 [1] does the source give for `Cc1c(OCC(F)(F)F)ccnc1C[S+]([O-])c1nc2ccccc2[nH]1` (centres unmarked) [lansoprazole] here?
Its IC50 is 2.77 µM.

What about the “Inhibition of TNAP activity (in words)” value (recombinant human TNAP) of the same compound?
Its value is “did not inhibit”.

And the “Matrix mineralisation (Alizarin red)” value ([2]; 5 µM)?
The value was “significantly decreased matrix mineralisation”.

What about the “Matrix mineralisation (Alizarin red)” value ([2]; 10 µM) of the same compound?
Its value is “significantly decreased matrix mineralisation”.

What about the “Inhibition of recombinant human PHOSPHO1 activity” value [3] of the same compound?
The value was “over 70%”.

And the “Inhibition of osteoblast MV calcification” value (osteoblast MV)?
Its value is 57%.

What about the “Mineralisation of MVs isolated from osteoblasts” value (osteoblast MV) of the same compound?
Its value is “impairs their mineralisation”.

And the “Effect on TNAP activity” value [4]?
The value was “no effect”.

What about the “Mineralisation of leg and wing long bones” value (developing chick embryos) of the same compound?
Its value is “completely inhibited mineralisation”.

What about the “Ability of osteoblasts to mineralise their matrix” value (osteoblasts) of the same compound?
The value was “decreased the ability of osteoblasts to mineralise their matrix”.

Which results are given for `COc1ccc2[nH]c([S+]([O-])Cc3ncc(C)c(OC)c3C)nc2c1` (centres unmarked) [omeprazole]?
IC50 [1]: 2.8 µM; Inhibition of TNAP activity (in words) (recombinant human TNAP): did not inhibit; Matrix mineralisation (Alizarin red) ([2]; 10 µM): significantly inhibited matrix mineralisation; Ability of osteoblasts to mineralise their matrix (osteoblasts): decreased the ability of osteoblasts to mineralise their matrix; Bone mineral content and BMD (rodents): reduced bone mineral content and BMD; Effect on calcium absorption (healthy subjects): not found to have inhibitory effects

With `CNC(=C[N+](=O)[O-])NCCSCc1ccc(CN(C)C)o1` [ranitidine] as the compound, how does the “Inhibition of PHOSPHO1 activity (in words)” value [1] read?
The value was “no inhibitory effects; also recorded: no inhibition”.

With `COc1ccnc(C[S+]([O-])c2nc3ccc(OC(F)F)cc3[nH]2)c1OC` (centres unmarked) [pantoprazole] as the compound, how does the IC50 [1] read?
The IC50 was 19.3 µM.

What about the “Inhibition of TNAP activity (in words)” value (recombinant human TNAP) of the same compound?
Its value is “did not inhibit”.

What about the “Matrix mineralisation (Alizarin red)” value ([2]; 5 µM) of the same compound?
The value was “not sufficient to inhibit matrix mineralisation”.

What about the “Matrix mineralisation (Alizarin red)” value ([2]; 10 µM) of the same compound?
Its value is “not sufficient to inhibit matrix mineralisation”.

What about the “Matrix mineralisation (Alizarin red)” value ([2]; 50 µM) of the same compound?
Its value is “significant decrease in matrix mineralisation”.

With `CN/C(=N/CCSCc1nc[nH]c1C)NC#N` [cimetidine] as the compound, how does the “Inhibition of PHOSPHO1 activity (in words)” value [1] read?
The value was “no inhibitory effects; also recorded: no inhibition”.

Which “Inhibition of PHOSPHO1 activity (in words)” value [1] does the source give for `NC(N)=Nc1nc(CSCCC(N)=NS(N)(=O)=O)cs1` [famotidine] here?
Its value is “no inhibitory effects; also recorded: no inhibition”.
